Measurements taken from patent US20140187594A1, “DIPHENYL ETHER COMPOUNDS FOR THE TREATMENT OF LIVER, LUNG DISORDERS, DIABETIC COMPLICATIONS AND CARDIOVASCULAR DISEASES” (ORCHID CHEMICALS AND PHARMACEUTICALS LTD, priority 2010, published 2014).
Entries after “also recorded” stand apart in the source; their conditions may differ.

What was measured:
NAFLD/NASH mice = experiment: Supranutritional diet induced NAFLD/NASH (and DIO/NAFLD) models; type: in vivo, C57BL/6 mice
Description: A rodent obese and NAFLD model was developed by feeding supranutritional diet, which simulates several features of human obesity and NAFLD. These features were treated as mentioned below. […] C57BL/6 male mice aged at 6-8 weeks, body weight ranges between 16-22 g were used for this study. Animals were divided into two groups. First group (n=8, where n refers to number of animals) was treated as a normal control fed with chow feed (Nutri Lab® Rodent, Tetragon Chemie Pvt. Ltd., Bangalore) and the second group (n=20) was treated with 60 Kcal % high fat diet (HFD) (Research Diets, New Brunswick, N.J., Cat# D12492 with blue dye) for 90 days. Animals were selected based on their body weight. The Animals fed with normal chow diet (n=8) served as normal control (Group I) and animals fed with HFD were divided into two groups as DIO/NAFLD control (Group II) (n=10), and Group III (n=9) treated with compound formula (A) at 100 mg/kg for 28 days. During this period, animal body weight and feed intake was recorded daily.
A rodent NAFLD/NASH model was developed by feeding supranutritional diet which simulates several features of human NAFLD/NASH. These features were treated as mentioned below. Fifty C57BL/6 male mice aged 6-8 weeks, and body weight ranges between 16-36 g were used for this study. Animals were divided into two groups, first group (n=10) treated as a normal control, was fed with chow feed (Nutri Lab® Rodent, Tetragon Chemie Pvt. Ltd., Bangalore) and the second group (n=40) fed with 60 Kcal % HFD (Research Diets, New Brunswick, N.J., Cat# D12492 with blue dye) and 40% high fructose liquid (HFL) for 60 days. After 45 days, two animals from disease induction and normal control groups were sacrificed; liver histopathology examination was carried out to confirm the induction of NAFLD/NASH. Animals fed with normal chow diet served as a normal control (Group I) and animals fed HFD and HFL were divided into three groups (n=6-8) as NAFLD/NASH control (Group II), Group III and Group IV were dosed with compound of formula (A) and Metformin at 100 and 350 mg/kg p.o respectively for 28 days. On 28th day, animals were kept 12 hours fasting and 29th day blood was collected, plasma separated and used for biochemical and compound concentration analysis. The animals were then sacrificed. Liver was collected and weighed. Liver tissues were used for compound concentration analysis, triglycerides estimation and histopathology examination. Gross pathology of liver was also observed. Experiment-3: Effect of Compound of formula (A) in NAFLD/NASH mice
The experiment-2 protocol was followed. There compound of formula (A) was compared with other antidiabetic compounds (Figures-8-13).
To develop NAFLD/NASH model, the same protocol was followed as mentioned in Experiment-2. At the end of induction period the animals were grouped as follows. Animals fed with normal chow diet (n=9) served as Normal control (Group 1) and animals fed HFD and HFL were divided into four groups (n=9-12) as NAFLD/NASH control (Group II), Groups III, IV, and V were treated with compound of formula (A) at 10, 30 and 100 mg/kg p.o. respectively for 28 days. After 28 days of treatment animals were kept for 12 hours fasting and blood was collected for biochemical estimations. Following blood collection, animals were sacrificed, liver was collected and weighed. Liver tissues were used for compound concentration analysis, TG estimation and histopathological examination. Gross pathology of liver was also observed. […]

IL-6 = experiment: LPS induced serum IL-6 in vivo; design: species or system mice; conditions: 50 mg/kg/day oral, 10 days, LPS 400 μg/kg IP, FIG. 40
Source text: (§1) Based on the results obtained in the in-vitro studies, it can be concluded that Compounds A, B and C are moderately potent inhibitors of Aldose Reductase. […] At the end of the assay, cell lysates were probed with anti iNOS antibody. Compound of formula (A) inhibits the iNOS production in these cells (FIG. 38). […] Since iNOS is implicated in the pathology of diabetic complications, it is anticipated that Compound of formula (A) will have a protective effect in the development of neovascularization contributed by elevated iNOS. Inhibits LPS induced TNF-α and IL-6 Inhibition In Vivo: This study was undertaken when the mice are at 10-11 weeks in age. On Day 0 their body weights were measured and they were assigned to two groups of 6 mice each to get similar average group body weights. They were orally administered with either vehicle (deionized water, Group 1) or Compound of formula (A) (50 mg/kg; Group 2) daily between 9:30 and 10:30 AM for 10 days. The body weights were measured on day 3, 7 and 10 of the study before administration of vehicle or drug. On Day 10, the mice were administered LPS at 400 μg/kg, IP. After 1 hour they were orally administered with either vehicle or Compound of formula (A). […]
Serum IL-6 concentration for each group of mice is determined using the Quantikine Mouse IL-6 Immunoassay kit. […] The optical density of each well was read at 450 nm Microplate Reader (FIG. 40).

iNOS = iNOS inhibition in LPS challenged cells (anti iNOS antibody); type: cell-based; conditions: 30 μM, one hour preincubation, LPS 1 μg/mL for 6 hours, FIG. 38
Source text: as §1, with “(A). After another 90 minutes, the mice were euthanized by carbon dioxide asphyxiation. Blood was collected by cardiac puncture and was processed to obtain serum.” for “(A).”

COC(=O)[C@@H](N)Cc1ccc(Oc2ccc(CC3SC(=O)NC3=O)cc2)cc1 (stereo partly drawn) [Compound of formula (A), Methyl(2S)-2-amino-3-(4-{4-[(2,4-dioxo-1,3-thiazolidin-5-yl)methyl]phenoxy}phenyl)propanoate]
liver histopathology (Hepatic steatosis) (NAFLD/NASH mice; (A) up to 100 mg/kg, disodium salt of (C) 30 mg/kg p.o., 28 days, FIGS. 6, 7, 12, 13, 19, 20, 21, 24, 25, 30, 31 & 32): reduction; also recorded: improvement in liver histopathology
plasma AST (NAFLD/NASH mice; vs untreated disease control, FIG. 17): reduction
body weight (NAFLD/NASH mice; vs untreated disease control, FIGS. 1, 2, 8, 16 & 23): reduction in body weight
glucose (fasted) (NAFLD/NASH mice; vs untreated disease control, FIGS. 5 & 9): reduction
plasma ALT (NAFLD/NASH mice; vs untreated disease control, FIGS. 10 & 18): reduction
Serum IL-6 level (IL-6): reduction
iNOS production (iNOS): potent inhibitor of iNOS with activity superior to Rosiglitazone at equal concentrations
